A word on the melting point: it is the temperature, or range, at which the solid turns liquid. The term pIC50 denotes the IC50 on a negative log10 scale, so that one unit is a factor of ten. Higher therefore signals a low IC50.

pIC50: −log10 of the molar value.

The source of these data is patent publication US8299265B2, “Amine derivatives having NPY Y5 receptor antagonistic activity and the uses thereof” (Shionogi & Co., Ltd., priority 2007, dated 2012).

For series [1], the system named is high-fat diet-induced obese mice. Description: Suppression of body weight gain in high-fat diet-induced obese mice. It is filed as in vivo. Conditions: 6 mg/kg b.i.d. for 3 weeks, compared to vehicle. As to the method: Prior to administration of the compounds of this invention, male C57BL/6J mice were given a high-fat diet to induce obese. The high-fat diet-induced obese mice (13-14 week old, body weight 28-33 g) were dosed with 0.5% hydroxypropylmethyl cellulose solution (vehicle, Shin-Etsu Chemical Co., Ltd) or the compounds of this invention suspended in the 0.5% hydroxypropylmethyl cellulose solution twice a day (b.i.d.) for 3 weeks with the same diet. The changes in body weight were monitored daily.

The test system of a further series is male C57BL/6J mice. Description: Inhibition of Y5 agonist-induced food intake in mice. It is filed as in vivo. The conditions noted are these: Mus musculus, 4 hours after dosing, read-out: Inhibition ratio of Y5 agonist-induced food intake; for inhibition in vivo at 6 mg/kg: unmarked cells. The procedure: Under diethylether anesthesia the skull of male C57BL/6J mice (12-14 week old, 25-30 g) was exposed by making an incision about 1-cm long from external occipital crest to nasal dorsum, and then drilled in the 1-mm lateral position to the left following 1-mm posterior from bregma. After recovery from anesthesia mice were dosed with either 0.5% hydroxypropylmethyl cellulose solution (vehicle, Shin-Etsu Chemical Co., Ltd) or the compounds of this invention suspended in the 0.5% hydroxypropylmethyl cellulose solution. At one hour after the treatment, each animal received saline or a NPY Y5 receptor specific agonist, [cPP^1-7, NPY^19-23, Ala^31, Aib^32, Gln^34]-hPancreatic Polypeptide (0.1 nmol/1.5 μL saline/mouse) through the skull opening using a canula. Residual food was measured at 2 and 4 hours after the treatment.

The next series deals with T1, P-gp (Mus musculus, UniProt P21447).
T1 construct: from tissue; host or cells: living mice (Jcl; C57BL/6J, male, 7 weeks), brain / blood-brain barrier
T1 sequence (P21447 whole entry): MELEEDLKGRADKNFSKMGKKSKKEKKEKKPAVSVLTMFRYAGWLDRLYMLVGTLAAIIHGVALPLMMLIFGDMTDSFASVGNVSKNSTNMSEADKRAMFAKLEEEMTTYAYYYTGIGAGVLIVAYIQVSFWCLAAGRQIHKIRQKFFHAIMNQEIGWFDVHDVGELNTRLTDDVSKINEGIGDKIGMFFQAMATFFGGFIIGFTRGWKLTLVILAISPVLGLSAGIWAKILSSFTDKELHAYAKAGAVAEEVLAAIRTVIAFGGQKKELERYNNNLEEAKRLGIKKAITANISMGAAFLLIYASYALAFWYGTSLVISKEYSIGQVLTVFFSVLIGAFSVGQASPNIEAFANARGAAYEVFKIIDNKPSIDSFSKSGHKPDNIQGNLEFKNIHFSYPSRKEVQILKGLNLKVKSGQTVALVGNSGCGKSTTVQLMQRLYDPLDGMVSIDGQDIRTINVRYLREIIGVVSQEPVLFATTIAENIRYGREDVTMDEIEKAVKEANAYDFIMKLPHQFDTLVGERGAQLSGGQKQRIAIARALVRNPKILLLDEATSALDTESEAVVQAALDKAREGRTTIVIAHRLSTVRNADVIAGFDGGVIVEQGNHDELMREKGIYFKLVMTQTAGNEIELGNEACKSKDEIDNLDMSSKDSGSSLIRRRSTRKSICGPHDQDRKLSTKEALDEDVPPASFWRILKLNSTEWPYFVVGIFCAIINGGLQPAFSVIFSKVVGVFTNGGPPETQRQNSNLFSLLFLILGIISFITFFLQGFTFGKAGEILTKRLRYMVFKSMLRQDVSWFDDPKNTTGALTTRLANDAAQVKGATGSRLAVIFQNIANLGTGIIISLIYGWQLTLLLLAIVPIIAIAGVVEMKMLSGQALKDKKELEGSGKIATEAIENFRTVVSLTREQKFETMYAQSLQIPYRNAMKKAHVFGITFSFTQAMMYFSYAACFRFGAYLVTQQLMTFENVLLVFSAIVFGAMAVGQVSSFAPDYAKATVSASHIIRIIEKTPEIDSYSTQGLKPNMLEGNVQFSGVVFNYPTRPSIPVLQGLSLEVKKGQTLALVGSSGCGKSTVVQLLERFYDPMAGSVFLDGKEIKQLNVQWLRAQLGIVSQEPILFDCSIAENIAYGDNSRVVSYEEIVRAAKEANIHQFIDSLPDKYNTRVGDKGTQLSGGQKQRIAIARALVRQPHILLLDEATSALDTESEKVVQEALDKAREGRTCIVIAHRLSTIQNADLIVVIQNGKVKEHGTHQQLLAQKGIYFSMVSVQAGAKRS
Description: Potential for drug-drug interactions through P-gp in vivo (Kp with or without cyclosporin A). The conditions noted are these: mice, Kp with versus without cyclosporin A (20 mg/kg). The procedure:
Transportability of the compounds of this invention through the blood-brain barrier (blood-brain partition coefficient; Kp) in mice (Jcl; C57BL/6J mice, ♂, 7 weeks) was defined from the difference in concentration of the compounds between in plasma and in brain after intravenous administration of the compounds (0.5 mg/2 mL/kg). The brain Kp value of Compound (I-72) (Kp Cont.) was 1.29 showing high transportability through the blood-brain barrier.
To examine the potential for drug-drug interactions through P-gp in vivo, the Kp values of compounds of this invention with (KpCSA) or without (KpCont.) cyclosporin A (20 mg/kg), a P-gp inhibitor, were calculated. The KpCSA value of Compound (I-72) was 1.14, and the calculated KpCSA KpCont. ratio was 0.9.
On the other hand the potential for drug-drug interactions through P-pg of amide compound B which has similar structure of Compound (I-72) was also examined in mice. The KpCont. and KpCSA were 0.04 and 0.84, respectively.

A further series has as its target T2, mouse NPY Y5 receptor (Mus musculus, UniProt O70342).
T2 construct: expressed in transfected cells; membranes used
T2 sequence (O70342 1-466): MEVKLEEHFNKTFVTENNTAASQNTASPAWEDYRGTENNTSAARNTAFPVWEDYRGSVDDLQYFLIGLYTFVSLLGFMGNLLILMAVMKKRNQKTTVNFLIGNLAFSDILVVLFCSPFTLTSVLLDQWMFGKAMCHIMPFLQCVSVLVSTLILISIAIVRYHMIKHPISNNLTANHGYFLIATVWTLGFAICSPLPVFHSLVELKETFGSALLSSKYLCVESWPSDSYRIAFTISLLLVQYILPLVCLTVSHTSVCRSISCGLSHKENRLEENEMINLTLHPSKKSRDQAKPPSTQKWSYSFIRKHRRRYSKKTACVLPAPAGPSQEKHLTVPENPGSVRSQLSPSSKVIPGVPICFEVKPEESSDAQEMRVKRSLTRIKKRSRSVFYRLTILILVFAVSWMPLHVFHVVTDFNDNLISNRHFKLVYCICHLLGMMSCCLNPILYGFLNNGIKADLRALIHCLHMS
The series can be described thus: Affinity for mouse NPY Y5 receptor ([125I] peptide YY binding, CHO cell membranes). Conditions: membranes of CHO cells expressing mouse NPY Y5 receptor. An excerpt:
cDNA sequence encoding a mouse NPY Y5 receptor (Biochim. Biophys. Acta 1328, 83-89, 1997) was cloned in a vector (pME18S, Takebe et al. Mol. Cell. Biol. 8, 466-472). The obtained expression vector was transfected into CHO cells as a host by using Lipofect AMINE reagent (Trademark, Gico BRL Co., Ltd.) according to the instruction manual. The cells that stably express NPY Y5 receptor were obtained.
The membranes prepared from the CHO cells expressing NPY Y5 receptor, the compound of this invention and 30,000 cpm [^125I] peptide YY (60 pM of final concentration: Amersham) were incubated in the assay buffer (20 mM HEPES-Hanks buffer containing 0.1% bovine serum albumin, pH 7.4) at 25° C. for 2 hours, and then the membrane was filtered from the mixture through a glassfilter (GF/C) presoaked with 1% polyethyleneimine. After washing with 50 mM Tris-HCl buffer (pH 7.4), radioactivity retained on the filters was quantified with a gamma counter.
Nonspecific binding was defined as the amount of radioactivity bound to the membranes after incubation in the presence of 200 nM of peptide YY. The 50% inhibitory concentration of the test compound against the specific peptide YY binding (IC50 value) was calculated (Inui, A. et al. Endocrinology 131, 2090-2096 (1992)).

Regarding `CCS(=O)(=O)NC[C@H]1CC[C@H](Nc2ccn(-c3ccccc3F)n2)CC1` [Ij-112], the Body weight gain result in series [1] is given as “suppresses Body Weight Gain”.
For `Cn1c(=O)oc2cc(NC[C@H]3CC[C@H](NS(=O)(=O)C(C)(C)C)CC3)cc(F)c21` [Ii-45], the inhibition in vivo at 6 mg/kg with male C57BL/6J mice came out at 76.2%. In addition, in series [1], the Body weight gain result is “suppresses Body Weight Gain”.
As for `C[C@@H]1CN(c2ccc(NC(=O)[C@H]3CC[C@H](NS(=O)(=O)C(C)(C)C)CC3)cc2)C[C@H](C)O1` [amide compound B, reference compound], on P-gp, the KpCSA/KpCont. ratio was found to be 20.5.
With `CCS(=O)(=O)NC[C@H]1CC[C@H](Nc2ccc(-c3ccccc3)cn2)CC1` [Ij-4], the inhibition in vivo at 6 mg/kg in the series with male C57BL/6J mice is 88.2%.
With `C[C@@H]1CN(c2ccc(NC[C@H]3CC[C@H](NS(=O)(=O)C(C)(C)C)CC3)cc2)C[C@H](C)O1` [Compound I-72], the KpCSA/KpCont. ratio at P-gp amounted to 0.9.
`CC(C)S(=O)(=O)NC[C@H]1CC[C@H](Nc2nc3ccc(F)cc3s2)CC1` [Ij-152] returned a melting point of 151 to 152 °C. Also, in the series with male C57BL/6J mice, the inhibition in vivo at 1.5 mg/kg worked out at 62.6%.
`CC(C)S(=O)(=O)NC[C@H]1CC[C@H](Nc2nc3ccc(F)cc3o2)CC1` [Ij-156] registered a melting point of 170 to 171 °C. For the same compound, the inhibition in vivo at 12.5 mg/kg in the series with male C57BL/6J mice (**Dose: 12.5 mg/kg) stood at 90.4%.
With `CC(C)(C)S(=O)(=O)NC[C@H]1CC[C@H](Nc2ccn(-c3ccccc3F)n2)CC1` [Ij-110], the inhibition in vivo at 6 mg/kg in the series on male C57BL/6J mice was 90.3%.
Turning to `CCS(=O)(=O)N[C@H]1CC[C@H](CNc2cc(-c3ccccc3)on2)CC1` [Ii-44], on mouse NPY Y5 receptor, the pIC50 was 8.47.
The compound `CC(C)S(=O)(=O)NC[C@H]1CC[C@H](Nc2nc3cc(F)ccc3s2)CC1` [Ij-151] returned a melting point of 165 to 166 °C. The inhibition in vivo at 1.5 mg/kg in the series with male C57BL/6J mice came out at 78.4%.
Take `CCS(=O)(=O)NC[C@H]1CC[C@H](Nc2nc3ccccc3o2)CC1` [Ij-150]: the melting point lay in the range of 170 to 171 °C. Moreover, the inhibition in vivo at 6 mg/kg in the series on male C57BL/6J mice stood at 25.3%.
Turning to `CC(C)(C)S(=O)(=O)NC[C@H]1CC[C@H](Nc2nc3ccc(F)cc3o2)CC1` [Ij-159], the inhibition in vivo at 6 mg/kg with male C57BL/6J mice stood at 83.2%.
On to `CC(C)S(=O)(=O)NC[C@H]1CC[C@H](Nc2nc3cccc(F)c3s2)CC1` [Ij-153], for which, in the series on male C57BL/6J mice, the inhibition in vivo at 6 mg/kg was determined as 73%.
With `CC(C)(C)S(=O)(=O)NC[C@H]1CC[C@H](Nc2nc3cc(F)ccc3o2)CC1` [Ij-158], the melting point is 220 to 221 °C. In addition, in the series on male C57BL/6J mice, the inhibition in vivo at 6 mg/kg came to 70.5%.
In turn, `CCC(C)S(=O)(=O)NC[C@H]1CC[C@H](Nc2nc3ccc(F)cc3o2)CC1` (stereo partly drawn) [Ij-161] showed a melting point of 173 to 174 °C. Besides, the inhibition in vivo at 1.5 mg/kg with male C57BL/6J mice was determined as 15.8%.
For the compound `CC(C)S(=O)(=O)NC[C@H]1CC[C@H](Nc2nc3cc(F)ccc3o2)CC1` [Ij-155], in the series on male C57BL/6J mice, the inhibition in vivo at 1.5 mg/kg worked out at 56.1%.
`CC(C)S(=O)(=O)N[C@H]1CC[C@H](CNc2cc(F)cc(N3CCOCC3)c2)CC1` [Ii-55]: the inhibition in vivo at 6 mg/kg in the series with male C57BL/6J mice came to 64.3%.
With `CC(C)S(=O)(=O)NC[C@H]1CC[C@H](Nc2nc3cc(Cl)ccc3s2)CC1` [Ij-154], the melting point lay in the range of 166 to 167 °C. Also, the inhibition in vivo at 6 mg/kg in the series with male C57BL/6J mice was determined as 81.3%.
Turning to `CCC(C)S(=O)(=O)NC[C@H]1CC[C@H](Nc2nc3cc(F)ccc3o2)CC1` (stereo partly drawn) [Ij-160], the inhibition in vivo at 1.5 mg/kg in the series on male C57BL/6J mice stood at 36.6%.
